US20250326722A1 (SHANGHAI HANSOH BIOMEDICAL CO., LTD., priority 2022, published 2025)

System: LDLR level in HepG2 cells
Assay: Effect on the LDLR level in HepG2 cells (ELISA)
Format: cell-based, human
Design: concentration or dose not given beside the values
Details: 48 hours incubation, LDLR ELISA of lysate
Experimental: To detect the effect of the compounds on the LDLR protein level.
Envision (PE-Cisbio: 2105-0020), centrifuge (Eppendorf: 5810R), water purifier (THERMO: Pacific T II+Micropure), plate washer (Thermo: […] VERSA), and microplate shaker (Thermo: 88882006)
• 1) HepG2 cell strain was cultured in the complete culture medium at 37° C., 5% CO2 to 70-90% confluence. • 2) The cells were digested and resuspended in the experimental culture medium, inoculation was performed at 25,000 cells/well/200 μL in a 96-well cell culture plate, and the cells were cultured at 37° C., 5% CO2 for 20-24 hours. • 3) The culture medium was removed from the cell culture plate, and the cell culture plate was washed once by adding 200 μl of the experimental culture medium to each well. • 4) Preparation of positive control compound and compound to be tested: the positive control compound and the compound to be tested were diluted on the compound plate. • 5) The diluted compound was added to the cell culture plate at 250 μL per well and incubated at 37° C. and 5% CO2 for 48 hours. • 6) The cell culture medium was removed, the cells were washed with PBS, and 50 μL of the cell lysis buffer and the protein inhibitor were added. • 7) After centrifugation, the lysate was removed and the sample was stored for later use. • 8) Preparation of standard curve: corresponding volumes of Dilution buffer were successively added to respective standard tubes, and the standard was diluted in series by taking the corresponding volume from the original tube or the last concentration tube. • 9) Preparation of washing liquid: 10× Wash buffer was diluted into 1× with Milli-Q for later use. • 10) According to the standard curve wells and sample wells set according to a plate map, 80 μL/well of the corresponding standards and samples were added to the wells, with 2 replicate wells. A well in which no standard was added was used as a background value well. A self-adhesive seal was applied, the plate was placed on a plate shaker at room temperature, gently shaken, uniformly mixed, and incubated for 2 hours. • 11) The plate was placed on the plate washer, the washing liquid was set to 350 μL per well, and the plate was washed 4 times repeatedly. • 12) 200 μL of Human LDLR conjugate was added, a self-adhesive seal was applied, and the plate was placed on the plate shaker, well mixed uniformly, and incubated for 2 hours. • 13) The plate was placed on the plate washer, the washing liquid was set to 350 μL per well, and the plate was washed 4 times repeatedly. • 14) 200 μL/well of Substrate solution was added, and the plate was placed in the dark, applied with a self-adhesive seal, placed on the plate shaker, well mixed uniformly, and incubated for 20 minutes. • 15) 50 μL/well of Stop solution was added and mixed uniformly over 20 min. • 16) The optical density (OD) value in each well was measured in sequence at a wavelength of 450 nm by the microplate reader.
After the OD values were read by the microplate reader, the OD value of the 0-concentration standard in the standard group was subtracted from the OD values of the standards, control group, and samples to obtain the actual OD values for these wells. A standard curve was plotted with Graphpad and the concentration of the sample was calculated. If the dilution was performed during the sample detection, the calculated sample concentration was necessarily multiplied by the corresponding dilution ratio in the final calculation, which was the actual concentration of the sample. Concentration increase %=(actual concentration in control-actual concentration in sample)/actual concentration in control*100.

| Compound | LDLR expression level [%] |
| --- | --- |
| O=C1c2ncccc2CN1c1ccc(N[C@H]2CC[C@H](Nc3ncc(C(F)(F)F)nn3)C2)nc1 [Example 144] | 117 |
| Cc1cc2c(cn1)CN(c1ccc(N[C@H]3CC[C@H](Nc4ncc(C(F)(F)F)nn4)C3)nc1)C2=O [Example 148, 6-Methyl-2-(6-(((1S,3S)-3-((6-(trifluoromethyl)-1,2,4-triazin-3-yl)amino)cyclopentyl)amino)pyridin-3-yl)-2,3-dihydro-1H-pyrrolo[3,4-c]pyridin-1-one] | 121 |
| O=C1c2c(cccc2C(F)(F)F)CN1c1ccc(N[C@H]2CC[C@H](Nc3ncc(C(F)(F)F)nn3)C2)nc1 [Example 157, 7-(Trifluoromethyl)-2-(6-(((1S,3S)-3-((6-(trifluoromethyl)-1,2,4-triazin-3-yl)amino)cyclopentyl)amino)pyridin-3-yl) isoindolin-1-one] | 129 |
